Data set [1] concerns GLUT1. As to the kind of experiment: Immunocytochemistry of plasma membrane GLUT1 (translocation) in non-permeabilized cells. The format is cell-based, NMRI mice. The conditions noted are these: KU 0063794 1 μM, isoproterenol 1 μM, 2 h, p=0.0153, n=3. The method, then:
(§1) Brown adipocytes were isolated as described in Example 1 and seeded onto BD Falcon culture chamber slides (BD Biosciences, Franklin Lakes, N.J.). Cells were serum starved the night prior to experiment. On day 7 the cells were challenged with inhibitors for 30 min before being stimulated for 1-2 hours with drugs as indicated. Cells were washed with warm PBS and fixed for 15 min (4% formaldehyde in PBS). Cells were washed with PBS and formaldehyde quenched with 50 mM glycine in PBS, and washed three times for 5 min each with PBS. Cells were blocked for 1 h at room temperature with 8% BSA in PBS, and washed three times for 5 min each with PBS. For permeabilizing the cells, the cells were treated with 10% triton x in PBS (dilution 1:40) before blocking. Primary antibody (2 μg/ml GLUT1 antibody (AbCam, Cambridge, UK), 1.5% BSA in PBS) was added and slides incubated over night at 4° C. The next day the cells were washed three times for 5 min each with PBS. Slides were then incubated with secondary antibody (3 μg/ml alexa488 conjugated goat antirabbit IgG (Invitrogen, Paisley, UK), 3% BSA in PBS) and washed three times for 5 min each with PBS. Slides were mounted with mounting media (8% 1,4-diazabicyclooctane, 75% glycerol in PBS) and sealed.

Data set [2] has as its system BAT. The experiment in a line: Glucose uptake in brown fat (BAT) in vivo, [3H]-2DG. Further details: species or system FVB mice. The conditions noted are these: n=5. The procedure:
Groups of FVB mice were fasted for 5 hours prior to study and anesthetized with pentobarbital (60 mg per kg of body weight, i.p.). Mice were then injected with a specific mTOR inhibitor KU 0063794 (10 mg/kg i.p.) or DMSO as control. Isoproterenol (1 mg/kg ip) or saline were injected after 10 min and [^3H]-2DG (130 μCi/kg body weight ip) 20 min prior to end time. BAT was dissected […], and tissues digested with 0.5M NaOH overnight. Glucose uptake was measured by liquid scintillation counting. All experiments were conducted with ethical permission (N388/12) from the North Stockholm Animal Ethics Committee.

Data set [3] has as its system GLUT1. The experiment in a line: Immunocytochemistry of total cellular GLUT1 in permeabilized cells. The format is cell-based, NMRI mice. Particulars: isoproterenol 1 μM, 2 h. The method, then: as §1
In data set [4] the test system is GLUT1. As to the kind of experiment: Western blot of total GLUT1 protein content. The conditions noted are these: isoproterenol 1 μM, 0-2 h; for total GLUT1 protein content (Western blot): in presence or absence of 1 μM KU 0063794, p=0.0067 and p=0.0017, n=3. The data set is classed as cell-based, NMRI mice. The method, then: Brown adipocytes were grown as described in Example 1 and differentiated in 12 well plates and serum starved the night prior to experiment. On day 7 the cells were challenged with inhibitors for 30 min before being stimulated with drugs as indicated. Lysates were prepared in prewarmed (65° C.) sample buffer (62.5 mM Tris pH 6.8, 2% SDS, 10% glycerol, 50 mM dithiothreitol, 0.1% bromophenol blue) and boiled for 5 min. Samples were loaded on a 8 or 12% acrylamide gel and separated for 2 hours at 100 V. Proteins were transferred to Hybond-P polyvinylidene difluoride membranes (pore size […]; Amersham Biosciences, Arlington Heights, Ill.). The primary GLUT1 antibody (diluted 1:1000) was from AbCam (Cambridge, UK). The primary antibody was detected using a secondary antibody (horseradish peroxidase-linked anti-rabbit IgG, Cell Signaling) diluted 1:2000 and enhanced chemiluminescence (ECL, Amersham Biosciences). Images were quantified using Image J 1.46r. […] Western blot of GLUT1 protein content in mature brown adipocytes was quantified after isoproterenol stimulation (1 μM, 0-2 h) in presence or absence of 1 μM KU 0063794.

Data set [5] has as its system mouse rictor. The experiment in a line: Rictor knock down with siRNA, then glucose uptake or western blotting. The format is cell-based. Particulars: 2.5 μg/ml siRNA. The method, then:
Primary brown adipocytes were used on day 3 and transfected with K2 Transfection System (Biontex laboratories) according to manufacturer's protocol using 2.5 μg/ml of siRNA (sequence: […]) directed against mouse rictor (from Sigma). 24 h after transfection, glucose uptake or western blotting was performed as described above.

Data set [6] concerns mature brown adipocytes primary cultures. As to the kind of experiment: 2-deoxy-D-[1-3H]-glucose uptake in vitro in mature primary brown adipocytes. The data set is classed as cell-based, NMRI mice. Particulars: for glucose uptake: isoproterenol 1 μM, 2 hours, p=0.0042, n=4-6. The method, then:
Brown fat primary cells were isolated from NMRI mice (3-4 week-old) purchased from Nova-SCB AB, Sweden. All experiments were conducted with ethical permission (N388/12) from the North Stockholm Animal Ethics Committee. Animals were euthanized by CO2, and brown fat precursor cells were isolated from the intrascapular, axillary and cervical brown adipocyte depots as previously described (Hutchinson, Bengtsson 2006, Hutchinson, Chernogubova et al. 2006). The tissue was minced and transferred to a HEPES-buffered solution (pH 7.4) containing 0.2% (wt/vol) crude collagenase type II. Routinely, tissue from 6 mice was digested in 10 ml of the HEPES-buffered solution. The tissue was digested for 30 minutes at 37° C., with constant vortexing. The digest was filtered through a 250 μm filter and the solution incubated on ice for 15 min to allow the mature adipocytes and fat droplets to float. The infranatant was filtered through a 25 μm filter, centrifuged (10 min, 700×g), the pellet resuspended in DMEM (4.5 g D-glucose/l) and recentrifuged. The pellet was finally resuspended in 0.5 ml cell culture medium per mouse dissected. The cell culture medium consisted of DMEM (4.5 g D-glucose/l) supplemented with 10% newborn calf serum, 2.4 nM insulin, […], 50 IU/ml penicillin, 50 μg/ml streptomycin and 25 μg/ml sodium ascorbate. Aliquots of 0.1 ml cell suspension were cultured in 12-well culture dishes with 0.9 ml of cell culture medium. Cultures were incubated in a 37° C. humidified atmosphere of 8% CO2 in air. On days 1, 3 and 5, the cell culture medium was renewed. Cells were used on day 7.
Glucose uptake in vitro was performed as previously described (Yamamoto, Hutchinson et al. 2007). On day 7 the cells were treated with inhibitors for 30 min before addition of isoproterenol for 2 hours, unless otherwise indicated. […] Reactions were terminated by washing in ice-cold PBS, cells lysed (400 μl of 0.2 M NaOH, 1 h at 60° C.) and the incorporated radioactivity determined by liquid scintillation counting.

The subject of data set [7] is mTOR. As to the kind of experiment: mTOR phosphorylation at Ser2481 and Ser2448 by western blot. The data set is classed as cell-based. Particulars: 1 μM isoprenaline, 2 hours. From the text:
The immunoblot is representative of three experiments performed.

The record followed here is patent US20170153225A1, “A METHOD OF SCREENING FOR A COMPOUND CAPABLE OF STIMULATING GLUCOSE TRANSPORT INTO BROWN AND/OR BRITE ADIPOCYTES OF A MAMMAL, A KIT FOR USE IN SUCH A METHOD” (ATROGI AB, priority 2014, published 2017).

Regarding `COc1ccc(-c2ccc3c(N4CCOCC4)nc(N4C[C@@H](C)O[C@@H](C)C4)nc3n2)cc1CO` [KU 0063794], the “inhibition of isoproterenol-stimulated translocation of GLUT1 to the plasma membrane” value in data set [1] is listed as “prevents the translocation of GLUT1 to the plasma membrane”. In addition, the “reduction of isoproterenol stimulated glucose uptake in vivo” value in data set [2] (KU 0063794 before isoproterenol 1 mg/kg ip, p=0.0175) is reported as “significantly reduced”. Also, the “effect of mTOR inhibitor on stimulated de novo synthesis of GLUT1, permeabilized cells” value in data set [3] (KU 0063794 1 μM) is “not inhibited by inhibition of mTOR”. Further, the “effect of mTOR inhibitor on isoproterenol-increased GLUT1 content (Western blot)” value in data set [4] (KU 0063794 1 μM) is listed as “mTOR independent manner”.

Take “siRNA directed against mouse rictor: siRNA (sequence: CAGAAAGCAATCGCAACTCACCACA) directed against mouse rictor (from Sigma) (chemistry not given here)”: in data set [5] (24 h after transfection, p=0.0105, n=3), the “inhibition of isoproterenol (GPCR) stimulated glucose uptake by rictor knock down” value is on record as “fully inhibited”. Besides, the “rictor protein after knock down” value in data set [5] (K2 transfection system) is “reduction of rictor protein”.

As to `CCC(=O)N1CCN(c2ccc(-n3c(=O)ccc4cnc5ccc(-c6cnc7ccccc7c6)cc5c43)cc2C(F)(F)F)CC1` [Torin-1], the “inhibition of isoproterenol stimulated glucose uptake” value in data set [6] (Torin-1 1 μM, 30 min before isoproterenol 1 μM) is given as “full inhibition of glucose uptake”.

For the molecule `CC(C)NCC(O)c1ccc(O)c(O)c1` (centres unmarked) [Isoproterenol], the “mTOR phosphorylation at Ser2448” value in data set [7] was “not at Ser2448”. Also, the “glucose uptake in brown fat in vivo” value in data set [2] (isoproterenol 1 mg/kg ip) is “stimulated glucose uptake in vivo”. The “total cellular GLUT1 (de novo synthesis), permeabilized cells” value in data set [3] (p=0.0334, n=3) is “de novo synthesis can be stimulated”. Besides, the “total GLUT1 protein content (Western blot)” value is listed as “significantly increase the amount of GLUT1” in data set [4] and “increased total GLUT1 content” in data set [4] (listed as isoproterenol). Besides, the glucose uptake entry was “increase glucose uptake” in data set [6] and “increases glucose uptake” in data set [6] (listed as isoproterenol).
